The EC50 is the concentration needed to bring the measured effect to its halfway point.

Structures are written as SMILES.

human LPAR1, sequence (Q92633 whole entry): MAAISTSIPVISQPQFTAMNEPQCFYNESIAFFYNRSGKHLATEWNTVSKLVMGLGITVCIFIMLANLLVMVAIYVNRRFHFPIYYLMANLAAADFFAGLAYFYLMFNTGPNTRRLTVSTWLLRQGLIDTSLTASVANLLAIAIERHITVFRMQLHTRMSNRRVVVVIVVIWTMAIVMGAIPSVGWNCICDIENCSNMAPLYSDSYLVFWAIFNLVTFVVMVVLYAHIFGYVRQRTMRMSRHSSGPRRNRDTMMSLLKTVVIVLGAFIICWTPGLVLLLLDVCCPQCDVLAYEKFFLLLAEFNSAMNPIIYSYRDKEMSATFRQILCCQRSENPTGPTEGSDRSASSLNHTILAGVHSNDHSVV

This assay concerns the target human LPAR1 (Homo sapiens (Human), UniProt Q92633). The experiment in a line: LPAR1 intracellular calcium mobilization assay (antagonist mode, FLIPR). The format is cell-based. To be noted: CHO-K1 EDG2 cells expressing human LPAR1, LPA 18:2 at EC80 (100 nM), test compound 0.5 nM to 10 μM. In general terms: Calcium assays in cells follow changes in intracellular calcium, usually with a dye or a luminescent sensor.
On to `C[C@@H](OC(=O)Nc1c(-c2ccc(NC(=O)C3[C@@H]4COC[C@@H]34)cn2)nnn1C)c1cccnc1Cl` (stereo partly drawn) [Compound 158, (R)-1-(2-chloropyridin-3-yl)ethyl (4-(5-((1R,5R)-3-oxabicyclo[3.1.0]hexane-6-carboxamido)pyridin-2-yl)-1-methyl-1H-1,2,3-triazol-5-yl)carbamate], for which the EC50 is 117 nM.

As to `C[C@@H](OC(=O)Nc1c(-c2ccc(NC(=O)C3CC4(CC4)C3)cn2)nnn1C)c1cccnc1Cl` [Compound 88, (R)-1-(2-chloropyridin-3-yl)ethyl (1-methyl-4-(5-(spiro[2.3]hexane-5-carboxamido)pyridin-2-yl)-1H-1,2,3-triazol-5-yl)carbamate], the EC50 amounted to 8.6 nM.

In the case of `C[C@@H](OC(=O)Nc1c(-c2ccc(NC(=O)C3(F)CC3)cn2)nnn1C)c1cccnc1Cl` [Compound 60, (R)-1-(2-chloropyridin-3-yl)ethyl (4-(5-(1-fluorocyclopropane-1-carboxamido)pyridin-2-yl)-1-methyl-1H-1,2,3-triazol-5-yl)carbamate], the 50% effective concentration (EC50) worked out at 140 nM.

`C[C@@H](OC(=O)Nc1c(-c2ccc(NC(=O)[C@H]3[C@@H]4CS(=O)(=O)C[C@@H]43)cn2)nnn1C)c1cc(F)cnc1F` (racemic) [Compound 229, (R)-1-(2,5-difluoropyridin-3-yl)ethyl (4-(5-((1RS,5SR,6SR)-3,3-dioxido-3-thiabicyclo[3.1.0]hexane-6-carboxamido)pyridin-2-yl)-1-methyl-1H-1,2,3-triazol-5-yl)carbamate]: the EC50 stood at 864 nM.

For the compound `C[C@@H](OC(=O)Nc1c(-c2ccc(NC(=O)C3CC(C)(O)C3)cn2)nnn1C)c1cccnc1Cl` (stereo partly drawn) [Compound 108, (R)-1-(2-chloropyridin-3-yl)ethyl (4-(5-(3-hydroxy-3-methylcyclobutane-1-carboxamido)pyridin-2-yl)-1-methyl-1H-1,2,3-triazol-5-yl)carbamate], the EC50 came to 420 nM.

In the case of `Cc1nc2cc(C(=O)Nc3ccc(-c4nnn(C)c4NC(=O)O[C@H](C)c4cc(F)cnc4F)nc3)cnc2[nH]1` [Compound 277, (R)-1-(2,5-difluoropyridin-3-yl)ethyl (1-methyl-4-(5-(2-methyl-3H-imidazo[4,5-b]pyridine-6-carboxamido)pyridin-2-yl)-1H-1,2,3-triazol-5-yl)carbamate], the EC50 came to 955 nM.

Take `C[C@@H](OC(=O)Nc1c(-c2ccc(NC(=O)C3CC4(C3)CC(F)(F)C4)cn2)nnn1C)c1cccnc1Cl` [Compound 41, (R)-1-(2-chloropyridin-3-yl)ethyl (4-(5-(6,6-difluorospiro[3.3]heptane-2-carboxamido)pyridin-2-yl)-1-methyl-1H-1,2,3-triazol-5-yl)carbamate]: the concentration giving a half-maximal response (EC50) is 38.1 nM.

On to `C[C@@H](OC(=O)Nc1c(-c2ccc(NC(=O)C3(C#N)CN(CC(F)(F)F)C3)cn2)nnn1C)c1cc(F)cnc1F` [Compound 305, (R)-1-(2,5-difluoropyridin-3-yl)ethyl (4-(5-(3-cyano-1-(2,2,2-trifluoroethyl)azetidine-3-carboxamido)pyridin-2-yl)-1-methyl-1H-1,2,3-triazol-5-yl)carbamate], for which the concentration for a half-maximal effect (EC50) is 1000 nM.

As to `C[C@@H](OC(=O)Nc1c(-c2ccc(NC(=O)CO)cn2)nnn1C)c1cccnc1Cl` [Compound 126, (R)-1-(2-chloropyridin-3-yl)ethyl (4-(5-(2-hydroxyacetamido)pyridin-2-yl)-1-methyl-1H-1,2,3-triazol-5-yl)carbamate], the half-maximal effective concentration (EC50) amounted to 1830 nM.

In the case of `C[C@@H](OC(=O)Nc1c(-c2ccc(NC(=O)[C@@H]3C[C@H]3c3ccncc3)cn2)nnn1C)c1cc(F)cnc1F` (mixture of isomers) [Compound 217, (R)-1-(2,5-difluoropyridin-3-yl)ethyl (1-methyl-4-(5-((1RS,2RS)-2-(pyridin-4-yl)cyclopropane-1-carboxamido)pyridin-2-yl)-1H-1,2,3-triazol-5-yl)carbamate], the 50% effective concentration (EC50) turned out to be 58.1 nM.

Consider `C[C@@H](OC(=O)Nc1c(-c2ncc(NC(=O)C34CC(C#N)(C3)C4)cc2F)nnn1C)c1cc(F)cnc1F` [Compound 337, (R)-1-(2,5-difluoropyridin-3-yl)ethyl (4-(5-(3-cyanobicyclo[1.1.1]pentane-1-carboxamido)-3-fluoropyridin-2-yl)-1-methyl-1H-1,2,3-triazol-5-yl)carbamate], for which the EC50 came to 163 nM.

In the case of `C[C@H](C#N)C(=O)Nc1ccc(-c2nnn(C)c2NC(=O)O[C@H](C)c2cccnc2Cl)nc1` [Compound 203, (R)-1-(2-chloropyridin-3-yl)ethyl (4-(5-((R)-2-cyanopropanamido)pyridin-2-yl)-1-methyl-1H-1,2,3-triazol-5-yl)carbamate], the EC50 was found to be 94.8 nM.

In the case of `CC(=O)Nc1ccc(-c2nnn(C)c2NC(=O)O[C@H](C)c2cccnc2Cl)cc1` [Compound 6, (R)-1-(2-chloropyridin-3-yl)ethyl (4-(4-acetamidophenyl)-1-methyl-1H-1,2,3-triazol-5-yl)carbamate], the EC50 is 1860 nM.

With `C[C@@H](OC(=O)Nc1c(-c2cc(F)c(NC(=O)c3ccc(C(F)(F)F)nc3)cn2)nnn1C)c1cccnc1Cl` [Compound 317, (R)-1-(2-chloropyridin-3-yl)ethyl (4-(4-fluoro-5-(6-(trifluoromethyl)nicotinamido)pyridin-2-yl)-1-methyl-1H-1,2,3-triazol-5-yl)carbamate], the EC50 was found to be 90.5 nM.

Regarding `CC(=O)Nc1ccc(-c2nnn(C)c2NC(=O)O[C@H](C)c2cc(Cl)cnc2F)nc1` [Compound 14, (R)-1-(5-chloro-2-fluoropyridin-3-yl)ethyl (4-(5-acetamidopyridin-2-yl)-1-methyl-1H-1,2,3-triazol-5-yl)carbamate], the EC50 is 1200 nM.

For the compound `C[C@@H](OC(=O)Nc1c(-c2ccc(NC(=O)C3(C(F)F)CC3)cn2)nnn1C)c1cc(F)cnc1F` [Compound 165, (R)-1-(2,5-difluoropyridin-3-yl)ethyl (4-(5-(1-(difluoromethyl)cyclopropane-1-carboxamido)pyridin-2-yl)-1-methyl-1H-1,2,3-triazol-5-yl)carbamate], the EC50 amounted to 487 nM.

For `C[C@@H](OC(=O)Nc1c(-c2ccc(NC(=O)c3cnc(C(F)(F)F)nc3)cn2)nnn1C)c1cc(F)cnc1F` [Compound 251, (R)-1-(2,5-difluoropyridin-3-yl)ethyl (1-methyl-4-(5-(2-(trifluoromethyl)pyrimidine-5-carboxamido)pyridin-2-yl)-1H-1,2,3-triazol-5-yl)carbamate], the EC50 was 38.5 nM.

As for `C[C@@H](OC(=O)Nc1c(-c2ccc(NC(=O)c3ccnc(N)c3)cn2)nnn1C)c1cc(F)cnc1F` [Compound 232, (R)-1-(2,5-difluoropyridin-3-yl)ethyl (4-(5-(2-aminoisonicotinamido)pyridin-2-yl)-1-methyl-1H-1,2,3-triazol-5-yl)carbamate], the EC50 was determined as 1110 nM.

Take `C[C@@H](C#N)C(=O)Nc1ccc(-c2nnn(C)c2NC(=O)O[C@H](C)c2cccnc2Cl)nc1` [Compound 204, (R)-1-(2-chloropyridin-3-yl)ethyl (4-(5-((S)-2-cyanopropanamido)pyridin-2-yl)-1-methyl-1H-1,2,3-triazol-5-yl)carbamate]: the EC50 was found to be 132 nM.

In the case of `C[C@@H](OC(=O)Nc1c(-c2ccc(NC(=O)C34COC(C3)C4)cn2)nnn1C)c1cccnc1Cl` [Compound 104, (R)-1-(2-chloropyridin-3-yl)ethyl (4-(5-(2-oxabicyclo[2.1.1]hexane-4-carboxamido)pyridin-2-yl)-1-methyl-1H-1,2,3-triazol-5-yl)carbamate], the EC50 came out at 560 nM.

For `C[C@@H](OC(=O)Nc1c(-c2ccc(NC(=O)C3CC3)cn2)nnn1C)c1cccnc1Cl` [Compound 34, (R)-1-(2-chloropyridin-3-yl)ethyl (4-(5-(cyclopropanecarboxamido)pyridin-2-yl)-1-methyl-1H-1,2,3-triazol-5-yl)carbamate], the EC50 stood at 429 nM.

Regarding `C[C@@H](OC(=O)Nc1c(-c2cnc(NC(=O)c3cnc(C(F)F)nc3)cn2)nnn1C)c1cccnc1Cl` [Compound 324, (R)-1-(2-chloropyridin-3-yl)ethyl (4-(5-(2-(difluoromethyl)pyrimidine-5-carboxamido)pyrazin-2-yl)-1-methyl-1H-1,2,3-triazol-5-yl)carbamate], the concentration giving a half-maximal response (EC50) amounted to 53.7 nM.

Turning to `C[C@@H](OC(=O)Nc1c(-c2ccc(NC(=O)C3CC(C)(C)C3)cn2)nnn1C)c1cccnc1Cl` [Compound 84, (R)-1-(2-chloropyridin-3-yl)ethyl (4-(5-(3,3-dimethylcyclobutane-l-carboxamido)pyridin-2-yl)-1-methyl-1H-1,2,3-triazol-5-yl)carbamate], the half-maximal effective concentration (EC50) is 14.5 nM.

On to `C[C@@H](OC(=O)Nc1c(-c2ccc(NC(=O)N3CCC3)cn2)nnn1C)c1cccnc1Cl` [Compound 188, (R)-1-(2-chloropyridin-3-yl)ethyl (4-(5-(azetidine-1-carboxamido)pyridin-2-yl)-1-methyl-1H-1,2,3-triazol-5-yl)carbamate], for which the EC50 is 452 nM.

Take `C[C@@H](OC(=O)Nc1c(-c2ccc(NC(=O)[C@H]3C[C@H](F)C3)cn2)nnn1C)c1cccnc1Cl` [Compound 62, (R)-1-(2-chloropyridin-3-yl)ethyl (4-(5-((1r,3R)-3-fluorocyclobutane-1-carboxamido)pyridin-2-yl)-1-methyl-1H-1,2,3-triazol-5-yl)carbamate]: the EC50 amounted to 110 nM.

Consider `C[C@@H](OC(=O)Nc1c(-c2ccc(NC(=O)c3ccncc3)cn2)nnn1C)c1cccnc1Cl` [Compound 61, (R)-1-(2-chloropyridin-3-yl)ethyl (4-(5-(isonicotinamido)pyridin-2-yl)-1-methyl-1H-1,2,3-triazol-5-yl)carbamate], for which the EC50 worked out at 134 nM.

With `COC(=O)Nc1ccc(-c2nnn(C)c2NC(=O)O[C@H](CF)c2ccccc2)cc1` [Compound 18, (S)-2-fluoro-1-phenylethyl (4-(4-((methoxycarbonyl)amino)phenyl)-1-methyl-1H-1,2,3-triazol-5-yl)carbamate], the 50% effective concentration (EC50) is 1130 nM.

Take `C[C@@H](OC(=O)Nc1c(-c2ccc(NC(=O)C34CC(C#N)(C3)C4)cn2)nnn1C)c1cc(F)cnc1F` [Compound 162, (R)-1-(2,5-difluoropyridin-3-yl)ethyl (4-(5-(3-cyanobicyclo[1.1.1]pentane-1-carboxamido)pyridin-2-yl)-1-methyl-1H-1,2,3-triazol-5-yl)carbamate]: the EC50 was determined as 84.7 nM.

Source of the values: patent US11912686B2 (Gilead Sciences, Inc., priority 2020, dated 2024).
